{"source": "patent US20180265877A1", "about": "“METHODS AND COMPOSITIONS FOR AGROBACTERIUM COMPRISING NEGATIVE SELECTION MARKERS” (PIONEER HI-BRED INTERNATIONAL, INC., priority 2015, published 2018)", "type_in_all_cases": "cell-based", "key": {"[1]": {"system": "AGL0 THY−", "assay": "Agrobacterium growth assay on solid medium, thymidine auxotroph AGL0 THY−", "conditions": "for Growth score: after 24 hours", "description": "(§1) In Table 4, results of a more detailed kill-curve for strain AGL0 on 5-fluorouracil are shown. […] Finally, a third experiment was performed using either wild-type AGL0 or an auxotrophic mutant of AGL0 in which the gene encoding thymidylate synthase was inactivated, rendering the bacteria incapable of growth in the absence of thymidine (this strain was referred to as AGL0 THY−). The two strains were plated at high densities (10^6 or 10^8 CFU/plate) onto medium containing 0, 1 or 3 μg/ml 5-fluorouracil, with each of these three treatments containing either 0 or 50 mg/l thymidine."}, "[2]": {"system": "Agrobacterium strain AGL0", "assay": "Agrobacterium growth assay on solid minimal medium, wild-type AGL0", "design": "key to Growth score: a score of zero (0) indicating no visible colonies; 1+ indicating a few isolated colonies; ++: progressing up to 5+; +++: progressing up to 5+; ++++: progressing up to 5+; +++++: 5+ indicating a confluent lawn", "description": "(§2) For all Agrobacterium growth-assay experiments, standard Agrobacterium minimal medium was used, with no additives as a control treatment, or with the addition of either 5-fluorocytosine, 5-fluorouracil or thymidine. To begin these tests, experiments were conducted to test for growth of wild-type and mutant AGL0 Agrobacterium strains on either 5-fluorocytosine (5-fluorocytosine, the non-toxic substrate of the CODA protein) or 5-fluorouracil (5-fluorouracil, the toxic product).\nas §1\nThe newly developed AGL0 mutant strain (THY−/codA+, see Example 1) was plated on varying concentrations of 5-fluorocytosine to assess growth. This strain, along with wild-type AGL0 were cultured overnight in liquid medium, diluted to 10^7 CFU and then 100 μl of suspension was plated onto minimal Agro medium+/− thymidine, with either 0, 100, 200 or 300 μg/ml 5-fluorocytosine, for a total of 8 treatments. After 72 hours at 28° C., the plates were scored for Agrobacterium growth."}, "[3]": {"system": "Agrobacterium strain EHA105", "assay": "Agrobacterium growth assay on solid minimal medium, EHA105", "design": "key: a score of zero (0) indicating no visible colonies; 1+ indicating a few isolated colonies; ++: progressing up to 5+; +++: progressing up to 5+; ++++: progressing up to 5+; +++++: 5+ indicating a confluent lawn", "conditions": "EHA105 plated at 1 × 10^4, after 3 days", "description": "as §2"}, "[4]": {"system": "four Agrobacterium strains (AGL0, LBA4404, EHA101 and EHA105)", "assay": "Agrobacterium growth assay, the four strains", "description": "as §2"}, "[5]": {"system": "Agrobacterium strain EHA101", "assay": "Agrobacterium growth assay on solid minimal medium, EHA101", "design": "key: a score of zero (0) indicating no visible colonies; 1+ indicating a few isolated colonies; ++: progressing up to 5+; +++: progressing up to 5+; ++++: progressing up to 5+; +++++: 5+ indicating a confluent lawn", "conditions": "EHA101 plated at 1 x 10^4, after 3 days", "description": "as §2"}, "[6]": {"system": "Agrobacterium strain LBA4404", "assay": "Agrobacterium growth assay on solid minimal medium, LBA4404", "design": "key: a score of zero (0) indicating no visible colonies; 1+ indicating a few isolated colonies; ++: progressing up to 5+; +++: progressing up to 5+; ++++: progressing up to 5+; +++++: 5+ indicating a confluent lawn", "conditions": "LBA4404 plated at 1 × 10^4, after 3 days", "description": "as §2"}}}
{"compound": "O=c1[nH]cc(F)c(=O)[nH]1", "note": "[5-fluorouracil]", "values": [{"measurement": "Growth score", "setting": "[1]; AGL0 THY- 1 x 10^6, 5-fluorouracil 1 μg/ml, no thymidine", "result": 0}, {"measurement": "Growth score", "setting": "[1]; AGL0 THY- 1 x 10^6, 5-fluorouracil 1 μg/ml, thy 50 mg/l", "result": 0}, {"measurement": "Growth score", "setting": "[1]; AGL0 THY- 1 x 10^6, 5-fluorouracil 3 μg/ml, no thymidine", "result": 0}, {"measurement": "Growth score", "setting": "[1]; AGL0 THY- 1 x 10^6, 5-fluorouracil 3 μg/ml, thy 50 mg/l", "result": 0}, {"measurement": "Growth score", "setting": "[1]; AGL0 THY- 1 x 10^8, 5-fluorouracil 1 μg/ml, no thymidine", "result": 0}, {"measurement": "Growth score", "setting": "[1]; AGL0 THY- 1 x 10^8, 5-fluorouracil 1 μg/ml, thy 50 mg/l", "result": 0}, {"measurement": "Growth score", "setting": "[1]; AGL0 THY- 1 x 10^8, 5-fluorouracil 3 μg/ml, no thymidine", "result": 0}, {"measurement": "Growth score", "setting": "[1]; AGL0 THY- 1 x 10^8, 5-fluorouracil 3 μg/ml, thy 50 mg/l", "result": 0}, {"measurement": "Growth", "setting": "[1]; THY− AGL0, 1 and 3 μg/ml 5-fluorouracil, 0 or 50 mg/l thymidine, 24 hours", "result": "no growth was observed"}, {"measurement": "Growth", "setting": "[2]; 0.3 μg/ml 5-fluorouracil, plating densities 1×10^3 to 1×10^8 CFU/plate", "result": "only a few colonies grew"}, {"measurement": "Growth", "setting": "[2]; 1 μg/ml 5-fluorouracil or higher, all plating densities", "result": "completely inhibited"}, {"measurement": "Growth score", "setting": "[2]; AGL0 1 x 10^6, 5-fluorouracil 1 μg/ml, no thymidine, after 24 hours", "result": 0}, {"measurement": "Growth score", "setting": "[2]; AGL0 1 x 10^6, 5-fluorouracil 1 μg/ml, thy 50 mg/l, after 24 hours", "result": 0}, {"measurement": "Growth score", "setting": "[2]; AGL0 1 x 10^6, 5-fluorouracil 3 μg/ml, no thymidine, after 24 hours", "result": 0}, {"measurement": "Growth score", "setting": "[2]; AGL0 1 x 10^6, 5-fluorouracil 3 μg/ml, thy 50 mg/l, after 24 hours", "result": 0}, {"measurement": "Growth score", "setting": "[2]; AGL0 1 x 10^8, 5-fluorouracil 1 μg/ml, no thymidine, after 24 hours", "result": 0}, {"measurement": "Growth score", "setting": "[2]; AGL0 1 x 10^8, 5-fluorouracil 1 μg/ml, thy 50 mg/l, after 24 hours", "result": 0}, {"measurement": "Growth score", "setting": "[2]; AGL0 1 x 10^8, 5-fluorouracil 3 μg/ml, no thymidine, after 24 hours", "result": 0}, {"measurement": "Growth score", "setting": "[2]; AGL0 1 x 10^8, 5-fluorouracil 3 μg/ml, thy 50 mg/l, after 24 hours", "result": 0}, {"measurement": "Growth score", "setting": "[2]; AGL0 1 × 10^3 CFU, 0.1 μg/ml 5-fluorouracil, 72 hours", "result": "++"}, {"measurement": "Growth score", "setting": "[2]; AGL0 1 × 10^3 CFU, 0.3 μg/ml 5-fluorouracil, 72 hours", "result": "+"}, {"measurement": "Growth score", "setting": "[2]; AGL0 1 × 10^3 CFU, 1 μg/ml 5-fluorouracil, 72 hours", "result": 0}, {"measurement": "Growth score", "setting": "[2]; AGL0 1 × 10^3 CFU, 3 μg/ml 5-fluorouracil, 72 hours", "result": 0}, {"measurement": "Growth score", "setting": "[2]; AGL0 1 × 10^4 CFU, 0.1 μg/ml 5-fluorouracil, 72 hours", "result": "++"}, {"measurement": "Growth score", "setting": "[2]; AGL0 1 × 10^4 CFU, 0.3 μg/ml 5-fluorouracil, 72 hours", "result": "+"}, {"measurement": "Growth score", "setting": "[2]; AGL0 1 × 10^4 CFU, 1 μg/ml 5-fluorouracil, 72 hours", "result": 0}, {"measurement": "Growth score", "setting": "[2]; AGL0 1 × 10^4 CFU, 3 μg/ml 5-fluorouracil, 72 hours", "result": 0}, {"measurement": "Growth score", "setting": "[2]; AGL0 1 × 10^5 CFU, 0.1 μg/ml 5-fluorouracil, 72 hours", "result": "+++"}, {"measurement": "Growth score", "setting": "[2]; AGL0 1 × 10^5 CFU, 0.3 μg/ml 5-fluorouracil, 72 hours", "result": "+"}, {"measurement": "Growth score", "setting": "[2]; AGL0 1 × 10^5 CFU, 1 μg/ml 5-fluorouracil, 72 hours", "result": 0}, {"measurement": "Growth score", "setting": "[2]; AGL0 1 × 10^5 CFU, 3 μg/ml 5-fluorouracil, 72 hours", "result": 0}, {"measurement": "Growth score", "setting": "[2]; AGL0 1 × 10^6 CFU, 0.1 μg/ml 5-fluorouracil, 72 hours", "result": "++"}, {"measurement": "Growth score", "setting": "[2]; AGL0 1 × 10^6 CFU, 0.3 μg/ml 5-fluorouracil, 72 hours", "result": "+"}, {"measurement": "Growth score", "setting": "[2]; AGL0 1 × 10^6 CFU, 1 μg/ml 5-fluorouracil, 72 hours", "result": 0}, {"measurement": "Growth score", "setting": "[2]; AGL0 1 × 10^6 CFU, 3 μg/ml 5-fluorouracil, 72 hours", "result": 0}, {"measurement": "Growth score", "setting": "[2]; AGL0 1 × 10^7 CFU, 0.1 μg/ml 5-fluorouracil, 72 hours", "result": "++"}, {"measurement": "Growth score", "setting": "[2]; AGL0 1 × 10^7 CFU, 0.3 μg/ml 5-fluorouracil, 72 hours", "result": "+"}, {"measurement": "Growth score", "setting": "[2]; AGL0 1 × 10^7 CFU, 1 μg/ml 5-fluorouracil, 72 hours", "result": 0}, {"measurement": "Growth score", "setting": "[2]; AGL0 1 × 10^7 CFU, 3 μg/ml 5-fluorouracil, 72 hours", "result": 0}, {"measurement": "Growth score", "setting": "[2]; AGL0 1 × 10^8 CFU, 0.1 μg/ml 5-fluorouracil, 72 hours", "result": "+++"}, {"measurement": "Growth score", "setting": "[2]; AGL0 1 × 10^8 CFU, 0.3 μg/ml 5-fluorouracil, 72 hours", "result": "+"}, {"measurement": "Growth score", "setting": "[2]; AGL0 1 × 10^8 CFU, 1 μg/ml 5-fluorouracil, 72 hours", "result": 0}, {"measurement": "Growth score", "setting": "[2]; AGL0 1 × 10^8 CFU, 3 μg/ml 5-fluorouracil, 72 hours", "result": 0}, {"measurement": "Growth score", "setting": "[2]; AGL0 plated at 1 × 10^4, 0.1 μg/ml 5-fluorouracil, after 3 days", "result": "+"}, {"measurement": "Growth score", "setting": "[2]; AGL0 plated at 1 × 10^4, 1.0 μg/ml 5-fluorouracil, after 3 days", "result": 0}, {"measurement": "Growth score", "setting": "[2]; AGL0 plated at 1 × 10^4, 3.0 μg/ml 5-fluorouracil, after 3 days", "result": 0}, {"measurement": "Growth score", "setting": "[2]; AGL0 plated at 4 × 10^7, 0.1 μg/ml 5-fluorouracil, after 3 days", "result": "++++"}, {"measurement": "Growth score", "setting": "[2]; AGL0 plated at 4 × 10^7, 1.0 μg/ml 5-fluorouracil, after 3 days", "result": "++++"}, {"measurement": "Growth score", "setting": "[2]; AGL0 plated at 4 × 10^7, 3.0 μg/ml 5-fluorouracil, after 3 days", "result": 0}, {"measurement": "Growth", "setting": "[2]; wild-type AGL0, 1 and 3 μg/ml 5-fluorouracil, 0 or 50 mg/l thymidine, 24 hours", "result": "no growth was observed"}, {"measurement": "Growth score", "setting": "[3]; 0.1 μg/ml 5-fluorouracil", "result": "+"}, {"measurement": "Growth score", "setting": "[3]; 1.0 μg/ml 5-fluorouracil", "result": 0}, {"measurement": "Growth score", "setting": "[3]; 3.0 μg/ml 5-fluorouracil", "result": 0}, {"measurement": "Growth", "setting": "[4]; 1 μg/ml 5-fluorouracil, all four strains plated at the lower density (1×10^4 CFU)", "result": "no growth"}, {"measurement": "Growth", "setting": "[4]; 3 μg/ml 5-fluorouracil, any strain", "result": "no growth was observed"}, {"measurement": "Totally inhibiting 5-fluorouracil concentration (3 μg/ml) relative to highest 5-fluorocytosine concentration tested (1000 μg/ml)", "setting": "[4]; fold lower", "result": "over 300 fold"}, {"measurement": "Growth score", "setting": "[5]; 0.1 μg/ml 5-fluorouracil", "result": "++"}, {"measurement": "Growth score", "setting": "[5]; 1.0 μg/ml 5-fluorouracil", "result": 0}, {"measurement": "Growth score", "setting": "[5]; 3.0 μg/ml 5-fluorouracil", "result": 0}, {"measurement": "Growth score", "setting": "[6]; 0.1 μg/ml 5-fluorouracil", "result": "+++"}, {"measurement": "Growth score", "setting": "[6]; 1.0 μg/ml 5-fluorouracil", "result": 0}, {"measurement": "Growth score", "setting": "[6]; 3.0 μg/ml 5-fluorouracil", "result": 0}]}
